Experimental data as given in the NIST ThermoML archive (doi:10.1021/je900550v).

Conditions: 101.33 kPa, Liquid; for speed of sound: Sing-around technique in a fixed-path interferometer; for mass density: Vibrating tube method

CC(=O)[O-].C[NH2+]CCO [N-methyl-2-hydroxyethylammonium acetate]
Conditions | mass density [kg/m3] | speed of sound [m/s] | viscosity [mPa·s]
278.15 K | 1112.83 | 1848.3 | –
278.4 K | 1112.68 | 1847.6 | –
278.65 K | 1112.54 | 1846.8 | –
278.9 K | 1112.38 | 1846.1 | –
279.15 K | 1112.23 | 1845.4 | –
279.4 K | 1112.08 | 1844.7 | –
279.65 K | 1111.93 | 1843.9 | –
279.9 K | 1111.78 | 1843.2 | –
280.15 K | 1111.63 | 1842.5 | –
280.4 K | 1111.48 | 1841.8 | –
280.65 K | 1111.33 | 1841 | –
280.9 K | 1111.18 | 1840.3 | –
281.15 K | 1111.03 | 1839.6 | –
281.4 K | 1110.88 | 1838.9 | –
281.65 K | 1110.74 | 1838.2 | –
281.9 K | 1110.58 | 1837.5 | –
282.15 K | 1110.43 | 1836.8 | –
282.4 K | 1110.28 | 1836.1 | –
282.65 K | 1110.13 | 1835.4 | –
282.9 K | 1109.98 | 1834.7 | –
283.15 K | 1109.83 | 1834 | –
283.4 K | 1109.68 | 1833.3 | –
283.65 K | 1109.53 | 1832.6 | –
283.9 K | 1109.38 | 1832 | –
284.15 K | 1109.22 | 1831.3 | –
284.4 K | 1109.07 | 1830.6 | –
284.65 K | 1108.92 | 1829.9 | –
284.9 K | 1108.77 | 1829.2 | –
285.15 K | 1108.62 | 1828.6 | –
285.4 K | 1108.47 | 1827.9 | –
285.65 K | 1108.32 | 1827.2 | –
285.9 K | 1108.17 | 1826.5 | –
286.15 K | 1108.02 | 1825.9 | –
286.4 K | 1107.86 | 1825.2 | –
286.65 K | 1107.71 | 1824.5 | –
286.9 K | 1107.56 | 1823.8 | –
287.15 K | 1107.41 | 1823.2 | –
287.4 K | 1107.26 | 1822.5 | –
287.65 K | 1107.11 | 1821.8 | –
287.9 K | 1106.95 | 1821.2 | –
288.15 K | 1106.8 | 1820.5 | 211.24
288.4 K | 1106.65 | 1819.9 | –
288.65 K | 1106.5 | 1819.2 | –
288.9 K | 1106.35 | 1818.6 | –
289.15 K | 1106.19 | 1817.9 | –
289.4 K | 1106.04 | 1817.3 | –
289.65 K | 1105.89 | 1816.6 | –
289.9 K | 1105.73 | 1816 | –
290.15 K | 1105.58 | 1815.3 | –
290.4 K | 1105.43 | 1814.7 | –
290.65 K | 1105.28 | 1814 | –
290.9 K | 1105.13 | 1813.4 | –
291.15 K | 1104.97 | 1812.7 | –
291.4 K | 1104.82 | 1812.1 | –
291.65 K | 1104.67 | 1811.4 | –
291.9 K | 1104.51 | 1810.8 | –
292.15 K | 1104.36 | 1810.1 | –
292.4 K | 1104.21 | 1809.5 | –
292.65 K | 1104.05 | 1808.8 | –
292.9 K | 1103.9 | 1808.2 | –
293.15 K | 1103.76 | 1807.5 | 145.8
293.4 K | 1103.61 | 1806.9 | –
293.65 K | 1103.46 | 1806.3 | –
293.9 K | 1103.32 | 1805.6 | –
294.15 K | 1103.17 | 1805 | –
294.4 K | 1103.02 | 1804.3 | –
294.65 K | 1102.88 | 1803.7 | –
294.9 K | 1102.73 | 1803.1 | –
295.15 K | 1102.59 | 1802.4 | –
295.4 K | 1102.44 | 1801.8 | –
295.65 K | 1102.29 | 1801.2 | –
295.9 K | 1102.14 | 1800.5 | –
296.15 K | 1102 | 1799.9 | –
296.4 K | 1101.85 | 1799.2 | –
296.65 K | 1101.7 | 1798.6 | –
296.9 K | 1101.56 | 1798 | –
297.15 K | 1101.41 | 1797.3 | –
297.4 K | 1101.26 | 1796.7 | –
297.65 K | 1101.11 | 1796 | –
297.9 K | 1100.97 | 1795.4 | –
298.15 K | 1100.83 | 1794.8 | 106.06
298.4 K | 1100.67 | 1794.1 | –
298.65 K | 1100.53 | 1793.5 | –
298.9 K | 1100.38 | 1792.9 | –
299.15 K | 1100.23 | 1792.2 | –
299.4 K | 1100.08 | 1791.6 | –
299.65 K | 1099.93 | 1791 | –
299.9 K | 1099.78 | 1790.3 | –
300.15 K | 1099.63 | 1789.7 | –
300.4 K | 1099.48 | 1789 | –
300.65 K | 1099.34 | 1788.4 | –
300.9 K | 1099.19 | 1787.8 | –
301.15 K | 1099.04 | 1787.1 | –
301.4 K | 1098.89 | 1786.5 | –
301.65 K | 1098.74 | 1785.8 | –
301.9 K | 1098.59 | 1785.2 | –
302.15 K | 1098.44 | 1784.6 | –
302.4 K | 1098.29 | 1783.9 | –
302.65 K | 1098.14 | 1783.3 | –
302.9 K | 1097.99 | 1782.6 | –
303.15 K | 1097.84 | 1782 | 78.7
303.4 K | 1097.69 | 1781.3 | –
303.65 K | 1097.54 | 1780.7 | –
303.9 K | 1097.4 | 1780.2 | –
304.15 K | 1097.25 | 1779.6 | –
304.4 K | 1097.1 | 1779 | –
304.65 K | 1096.95 | 1778.3 | –
304.91 K | 1096.79 | 1777.7 | –
305.15 K | 1096.64 | 1777 | –
305.4 K | 1096.49 | 1776.4 | –
305.65 K | 1096.34 | 1775.7 | –
305.9 K | 1096.19 | 1775.1 | –
306.15 K | 1096.04 | 1774.5 | –
306.4 K | 1095.89 | 1773.8 | –
306.65 K | 1095.74 | 1773.2 | –
306.9 K | 1095.59 | 1772.5 | –
307.15 K | 1095.44 | 1771.9 | –
307.4 K | 1095.29 | 1771.3 | –
307.65 K | 1095.14 | 1770.6 | –
307.9 K | 1094.98 | 1770 | –
308.15 K | – | – | 60.03
